Target: T1, hTAS1R1 Q278K/rTAS1R3 (Homo sapiens, UniProt Q7RTX1, Q278K)
T1 construct: UniProtKB number Q7RTX1–1); expressed in transfected cells; host or cells: HEK293T/17 (ATCC CRL-11268)
T1 sequence (Q7RTX1 21-841 Q278K): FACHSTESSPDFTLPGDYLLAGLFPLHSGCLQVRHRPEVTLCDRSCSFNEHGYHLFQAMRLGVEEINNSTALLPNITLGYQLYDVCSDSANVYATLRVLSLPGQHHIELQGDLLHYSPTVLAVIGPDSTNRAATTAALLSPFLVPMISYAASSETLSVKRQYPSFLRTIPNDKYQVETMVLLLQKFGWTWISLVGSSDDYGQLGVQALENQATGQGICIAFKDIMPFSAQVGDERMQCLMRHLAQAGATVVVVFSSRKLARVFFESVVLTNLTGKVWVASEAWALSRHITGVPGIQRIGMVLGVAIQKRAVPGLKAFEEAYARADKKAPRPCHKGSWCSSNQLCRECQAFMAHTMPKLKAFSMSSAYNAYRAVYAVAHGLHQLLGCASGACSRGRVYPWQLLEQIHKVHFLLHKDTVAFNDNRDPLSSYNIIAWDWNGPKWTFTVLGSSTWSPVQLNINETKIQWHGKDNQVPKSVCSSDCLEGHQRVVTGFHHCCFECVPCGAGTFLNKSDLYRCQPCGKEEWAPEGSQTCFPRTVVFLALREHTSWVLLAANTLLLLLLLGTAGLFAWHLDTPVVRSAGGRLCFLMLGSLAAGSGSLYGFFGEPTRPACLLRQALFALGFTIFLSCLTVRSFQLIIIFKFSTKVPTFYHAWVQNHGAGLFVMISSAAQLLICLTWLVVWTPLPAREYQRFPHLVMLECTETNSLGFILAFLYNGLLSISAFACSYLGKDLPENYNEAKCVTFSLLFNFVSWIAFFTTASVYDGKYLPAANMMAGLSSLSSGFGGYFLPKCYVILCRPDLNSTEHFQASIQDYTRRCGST
T1 sequence (Q923K1 21-858 partner): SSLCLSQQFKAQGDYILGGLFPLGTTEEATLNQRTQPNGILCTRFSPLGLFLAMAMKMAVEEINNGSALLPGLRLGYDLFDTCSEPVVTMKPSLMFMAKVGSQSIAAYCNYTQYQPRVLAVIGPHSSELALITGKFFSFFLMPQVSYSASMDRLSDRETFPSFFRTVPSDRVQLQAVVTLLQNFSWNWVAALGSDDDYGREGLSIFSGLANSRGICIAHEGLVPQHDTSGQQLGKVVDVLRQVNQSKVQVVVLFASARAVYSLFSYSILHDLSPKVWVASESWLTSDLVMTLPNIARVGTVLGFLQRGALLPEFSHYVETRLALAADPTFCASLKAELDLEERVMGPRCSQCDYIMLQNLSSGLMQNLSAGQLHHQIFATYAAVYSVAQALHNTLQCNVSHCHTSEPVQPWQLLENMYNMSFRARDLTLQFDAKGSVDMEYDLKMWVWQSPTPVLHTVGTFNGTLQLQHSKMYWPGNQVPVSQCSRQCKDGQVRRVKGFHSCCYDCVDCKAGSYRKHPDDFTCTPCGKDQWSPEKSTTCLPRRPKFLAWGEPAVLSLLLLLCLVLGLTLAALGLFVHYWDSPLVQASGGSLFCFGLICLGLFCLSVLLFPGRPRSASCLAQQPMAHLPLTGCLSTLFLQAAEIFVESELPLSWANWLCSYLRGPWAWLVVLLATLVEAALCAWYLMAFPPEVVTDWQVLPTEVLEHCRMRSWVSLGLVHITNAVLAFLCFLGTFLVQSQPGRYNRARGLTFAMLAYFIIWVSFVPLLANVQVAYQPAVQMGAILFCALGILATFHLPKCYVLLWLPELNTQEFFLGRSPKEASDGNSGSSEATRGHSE
Assay: Calcium assay, hTAS1R1 mutant co-expressed with rTAS1R3
Assay type: cell-based, rat

SMILES: N[C@@H](CCC(=O)N[C@@H](CS)C(=O)NCC(=O)O)C(=O)O [GSH, γ-L-glutamyl-L-cysteinyl-glycine]
- EC50: 5.66 ± 0.31 mM
- effect of the added compound (1 mM) on the response to L-Glu (Q278K): synergy was observed
- response to the agonist alone, vs WT (Q278K): significantly increased the initial amplitude
- Max ∆F/F0 (Q278K, GSH): 1.10 ± 0.02
- R1 = mutant EC50/WT EC50 (Q278K, GSH): 2.2

— article PMC12615753, “Glutathione as a taste modulator: molecular mechanisms of interaction with umami and sweet taste receptors” (Food Chemistry: Molecular Sciences, 2025)
